The NIST ThermoML archive (doi:10.1016/j.jct.2008.04.008)
Numbers after ± are expanded uncertainties.

Experiment: mn = molality of the nth substance listed, in mol/kg
Details: Liquid; for speed of sound: Pulse-echo method

Q: With [Br-].[Na+] [sodium bromide] + CO as the molecule, how does the mass density (283.15 K, m1 = 0.06477) read?
A: Its mass density is 805.613 ± 0.29 kg/m3.

Q: What about the mass density (283.15 K, m1 = 0.08313) of the same molecule?
A: Its mass density is 807.039 ± 0.29 kg/m3.

Q: What about the mass density (283.15 K, m1 = 0.1039) of the same molecule?
A: The mass density was 808.613 ± 0.29 kg/m3.

Q: And the mass density (283.15 K, m1 = 0.1241)?
A: The mass density was 810.154 ± 0.28 kg/m3.

Q: And the mass density (283.15 K, m1 = 0.1439)?
A: The mass density was 811.667 ± 0.28 kg/m3.

Q: What about the mass density (283.15 K, m1 = 0.1639) of the same molecule?
A: The mass density was 813.155 ± 0.28 kg/m3.

Q: What about the mass density (283.15 K, m1 = 0.2071) of the same molecule?
A: The mass density was 816.441 ± 0.28 kg/m3.

Q: And the mass density (283.15 K, m1 = 0.2491)?
A: The mass density was 819.583 ± 0.28 kg/m3.

Q: What about the mass density (283.15 K, m1 = 0.2915) of the same molecule?
A: The mass density was 822.759 ± 0.27 kg/m3.

Q: What about the mass density (283.15 K, m1 = 0.3318) of the same molecule?
A: The mass density was 825.782 ± 0.27 kg/m3.

Q: What about the mass density (283.15 K, m1 = 0.3735) of the same molecule?
A: The mass density was 828.905 ± 0.27 kg/m3.

Q: And the mass density (283.15 K, m1 = 0.4167)?
A: The mass density was 832.098 ± 0.26 kg/m3.

Q: What about the mass density (288.15 K, m1 = 0.06477) of the same molecule?
A: Its mass density is 800.933 ± 0.29 kg/m3.

Q: And the mass density (288.15 K, m1 = 0.08313)?
A: Its mass density is 802.363 ± 0.29 kg/m3.

Q: And the mass density (288.15 K, m1 = 0.1039)?
A: The mass density was 803.939 ± 0.29 kg/m3.

Q: What about the mass density (288.15 K, m1 = 0.1241) of the same molecule?
A: Its mass density is 805.482 ± 0.29 kg/m3.

Q: And the mass density (288.15 K, m1 = 0.1439)?
A: Its mass density is 806.995 ± 0.29 kg/m3.

Q: And the mass density (288.15 K, m1 = 0.1639)?
A: The mass density was 808.489 ± 0.29 kg/m3.

Q: And the mass density (288.15 K, m1 = 0.2071)?
A: Its mass density is 811.772 ± 0.28 kg/m3.

Q: What about the mass density (288.15 K, m1 = 0.2491) of the same molecule?
A: Its mass density is 814.916 ± 0.28 kg/m3.

Q: And the mass density (288.15 K, m1 = 0.2915)?
A: Its mass density is 818.104 ± 0.28 kg/m3.

Q: And the mass density (288.15 K, m1 = 0.3318)?
A: Its mass density is 821.118 ± 0.28 kg/m3.

Q: What about the mass density (288.15 K, m1 = 0.3735) of the same molecule?
A: The mass density was 824.245 ± 0.27 kg/m3.

Q: What about the mass density (288.15 K, m1 = 0.4167) of the same molecule?
A: The mass density was 827.443 ± 0.27 kg/m3.

Q: And the mass density (293.15 K, m1 = 0.06477)?
A: Its mass density is 796.252 ± 0.3 kg/m3.

Q: What about the mass density (293.15 K, m1 = 0.08313) of the same molecule?
A: The mass density was 797.683 ± 0.3 kg/m3.

Q: What about the mass density (293.15 K, m1 = 0.1039) of the same molecule?
A: The mass density was 799.259 ± 0.29 kg/m3.

Q: What about the mass density (293.15 K, m1 = 0.1241) of the same molecule?
A: Its mass density is 800.807 ± 0.29 kg/m3.

Q: What about the mass density (293.15 K, m1 = 0.1439) of the same molecule?
A: Its mass density is 802.323 ± 0.29 kg/m3.

Q: And the mass density (293.15 K, m1 = 0.1639)?
A: Its mass density is 803.818 ± 0.29 kg/m3.

Q: What about the mass density (293.15 K, m1 = 0.2071) of the same molecule?
A: Its mass density is 807.109 ± 0.29 kg/m3.

Q: And the mass density (293.15 K, m1 = 0.2491)?
A: The mass density was 810.253 ± 0.28 kg/m3.

Q: And the mass density (293.15 K, m1 = 0.2915)?
A: Its mass density is 813.441 ± 0.28 kg/m3.

Q: What about the mass density (293.15 K, m1 = 0.3318) of the same molecule?
A: Its mass density is 816.459 ± 0.28 kg/m3.

Q: What about the mass density (293.15 K, m1 = 0.3735) of the same molecule?
A: Its mass density is 819.585 ± 0.28 kg/m3.

Q: And the mass density (293.15 K, m1 = 0.4167)?
A: The mass density was 822.783 ± 0.27 kg/m3.

Q: And the speed of sound (298.15 K, m1 = 0.06477)?
A: Its speed of sound is 1106.1 ± 0.91 m/s.

Q: And the speed of sound (298.15 K, m1 = 0.08313)?
A: The speed of sound was 1107.1 ± 0.91 m/s.

Q: What about the speed of sound (298.15 K, m1 = 0.1039) of the same molecule?
A: Its speed of sound is 1107.7 ± 0.91 m/s.

Q: And the speed of sound (298.15 K, m1 = 0.1241)?
A: The speed of sound was 1108.7 ± 0.91 m/s.

Q: And the speed of sound (298.15 K, m1 = 0.1439)?
A: The speed of sound was 1109.1 ± 0.91 m/s.

Q: What about the speed of sound (298.15 K, m1 = 0.2071) of the same molecule?
A: Its speed of sound is 1111.8 ± 0.91 m/s.

Q: And the speed of sound (298.15 K, m1 = 0.2491)?
A: The speed of sound was 1113.2 ± 0.91 m/s.

Q: And the speed of sound (298.15 K, m1 = 0.2915)?
A: Its speed of sound is 1114.9 ± 0.91 m/s.

Q: And the speed of sound (298.15 K, m1 = 0.3318)?
A: The speed of sound was 1116.1 ± 0.92 m/s.

Q: And the speed of sound (298.15 K, m1 = 0.3735)?
A: The speed of sound was 1117.6 ± 0.92 m/s.

Q: And the speed of sound (298.15 K, m1 = 0.4167)?
A: Its speed of sound is 1119.2 ± 0.92 m/s.

Q: What about the mass density (298.15 K, m1 = 0.06477) of the same molecule?
A: Its mass density is 791.558 ± 0.3 kg/m3.

Q: What about the mass density (298.15 K, m1 = 0.08313) of the same molecule?
A: The mass density was 792.99 ± 0.3 kg/m3.

Q: What about the mass density (298.15 K, m1 = 0.1039) of the same molecule?
A: The mass density was 794.566 ± 0.3 kg/m3.

Q: What about the mass density (298.15 K, m1 = 0.1241) of the same molecule?
A: The mass density was 796.119 ± 0.3 kg/m3.

Q: What about the mass density (298.15 K, m1 = 0.1439) of the same molecule?
A: Its mass density is 797.64 ± 0.3 kg/m3.

Q: And the mass density (298.15 K, m1 = 0.1639)?
A: The mass density was 799.135 ± 0.3 kg/m3.

Q: What about the mass density (298.15 K, m1 = 0.2071) of the same molecule?
A: Its mass density is 802.43 ± 0.29 kg/m3.

Q: What about the mass density (298.15 K, m1 = 0.2491) of the same molecule?
A: Its mass density is 805.577 ± 0.29 kg/m3.

Q: And the mass density (298.15 K, m1 = 0.2915)?
A: Its mass density is 808.767 ± 0.29 kg/m3.

Q: What about the mass density (298.15 K, m1 = 0.3318) of the same molecule?
A: Its mass density is 811.79 ± 0.28 kg/m3.

Q: What about the mass density (298.15 K, m1 = 0.3735) of the same molecule?
A: Its mass density is 814.919 ± 0.28 kg/m3.

Q: What about the mass density (298.15 K, m1 = 0.4167) of the same molecule?
A: The mass density was 818.116 ± 0.28 kg/m3.

Q: What about the mass density (303.15 K, m1 = 0.06477) of the same molecule?
A: Its mass density is 786.848 ± 0.31 kg/m3.

Q: And the mass density (303.15 K, m1 = 0.08313)?
A: The mass density was 788.28 ± 0.31 kg/m3.

Q: What about the mass density (303.15 K, m1 = 0.1039) of the same molecule?
A: The mass density was 789.865 ± 0.3 kg/m3.

Q: And the mass density (303.15 K, m1 = 0.1241)?
A: The mass density was 791.41 ± 0.3 kg/m3.

Q: What about the mass density (303.15 K, m1 = 0.1439) of the same molecule?
A: The mass density was 792.938 ± 0.3 kg/m3.

Q: And the mass density (303.15 K, m1 = 0.1639)?
A: Its mass density is 794.436 ± 0.3 kg/m3.

Q: What about the mass density (303.15 K, m1 = 0.2071) of the same molecule?
A: Its mass density is 797.736 ± 0.3 kg/m3.

Q: And the mass density (303.15 K, m1 = 0.2491)?
A: The mass density was 800.887 ± 0.29 kg/m3.

Q: What about the mass density (303.15 K, m1 = 0.2915) of the same molecule?
A: The mass density was 804.078 ± 0.29 kg/m3.

Q: What about the mass density (303.15 K, m1 = 0.3318) of the same molecule?
A: The mass density was 807.103 ± 0.29 kg/m3.

Q: What about the mass density (303.15 K, m1 = 0.3735) of the same molecule?
A: Its mass density is 810.236 ± 0.28 kg/m3.

Q: And the mass density (303.15 K, m1 = 0.4167)?
A: Its mass density is 813.434 ± 0.28 kg/m3.

Q: And the mass density (308.15 K, m1 = 0.06477)?
A: The mass density was 782.114 ± 0.31 kg/m3.

Q: And the mass density (308.15 K, m1 = 0.08313)?
A: Its mass density is 783.548 ± 0.31 kg/m3.

Q: And the mass density (308.15 K, m1 = 0.1039)?
A: The mass density was 785.138 ± 0.31 kg/m3.

Q: And the mass density (308.15 K, m1 = 0.1439)?
A: The mass density was 788.218 ± 0.31 kg/m3.

Q: What about the mass density (308.15 K, m1 = 0.1639) of the same molecule?
A: The mass density was 789.716 ± 0.3 kg/m3.

Q: And the mass density (308.15 K, m1 = 0.2071)?
A: Its mass density is 793.019 ± 0.3 kg/m3.

Q: What about the mass density (308.15 K, m1 = 0.2491) of the same molecule?
A: Its mass density is 796.174 ± 0.3 kg/m3.

Q: What about the mass density (308.15 K, m1 = 0.2915) of the same molecule?
A: The mass density was 799.369 ± 0.3 kg/m3.

Q: And the mass density (308.15 K, m1 = 0.3318)?
A: Its mass density is 802.396 ± 0.29 kg/m3.

Q: What about the mass density (308.15 K, m1 = 0.3735) of the same molecule?
A: Its mass density is 805.533 ± 0.29 kg/m3.

Q: What about the mass density (308.15 K, m1 = 0.4167) of the same molecule?
A: Its mass density is 808.735 ± 0.29 kg/m3.

Q: And the mass density (313.15 K, m1 = 0.06477)?
A: The mass density was 777.354 ± 0.32 kg/m3.

Q: And the mass density (313.15 K, m1 = 0.08313)?
A: The mass density was 778.794 ± 0.32 kg/m3.

Q: What about the mass density (313.15 K, m1 = 0.1039) of the same molecule?
A: Its mass density is 780.385 ± 0.31 kg/m3.

Q: What about the mass density (313.15 K, m1 = 0.1439) of the same molecule?
A: The mass density was 783.471 ± 0.31 kg/m3.

Q: What about the mass density (313.15 K, m1 = 0.1639) of the same molecule?
A: The mass density was 784.971 ± 0.31 kg/m3.

Q: And the mass density (313.15 K, m1 = 0.2071)?
A: Its mass density is 788.281 ± 0.31 kg/m3.

Q: What about the mass density (313.15 K, m1 = 0.2491) of the same molecule?
A: Its mass density is 791.44 ± 0.3 kg/m3.

Q: And the mass density (313.15 K, m1 = 0.2915)?
A: The mass density was 794.64 ± 0.3 kg/m3.

Q: What about the mass density (313.15 K, m1 = 0.3318) of the same molecule?
A: The mass density was 797.671 ± 0.3 kg/m3.

Q: And the mass density (313.15 K, m1 = 0.3735)?
A: Its mass density is 800.808 ± 0.29 kg/m3.

Q: What about the mass density (313.15 K, m1 = 0.4167) of the same molecule?
A: Its mass density is 804.019 ± 0.29 kg/m3.
